The text below walks through data of ChEMBL document CHEMBL1201862, “PubChem BioAssay data set” (2004).

Assay [1] addresses G-protein coupled receptor 35 (Homo sapiens, UniProt Q9HC97). Briefly: GPR35 antagonists blocking zaprinast-driven arrestin recruitment, primary screen, imaging, U2OS, beta-arrestin-GFP, zaprinast agonist (AID 2058).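 Further: antagonist potency meaning inhibition of agonist-induced arrestin redistribution.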 It counts as functional.
For assay [2], the target named is T1, Rac GTPase-activating protein 1 (Homo sapiens, UniProt Q9H0H5).
T1 sequence (Q9H0H5 whole entry): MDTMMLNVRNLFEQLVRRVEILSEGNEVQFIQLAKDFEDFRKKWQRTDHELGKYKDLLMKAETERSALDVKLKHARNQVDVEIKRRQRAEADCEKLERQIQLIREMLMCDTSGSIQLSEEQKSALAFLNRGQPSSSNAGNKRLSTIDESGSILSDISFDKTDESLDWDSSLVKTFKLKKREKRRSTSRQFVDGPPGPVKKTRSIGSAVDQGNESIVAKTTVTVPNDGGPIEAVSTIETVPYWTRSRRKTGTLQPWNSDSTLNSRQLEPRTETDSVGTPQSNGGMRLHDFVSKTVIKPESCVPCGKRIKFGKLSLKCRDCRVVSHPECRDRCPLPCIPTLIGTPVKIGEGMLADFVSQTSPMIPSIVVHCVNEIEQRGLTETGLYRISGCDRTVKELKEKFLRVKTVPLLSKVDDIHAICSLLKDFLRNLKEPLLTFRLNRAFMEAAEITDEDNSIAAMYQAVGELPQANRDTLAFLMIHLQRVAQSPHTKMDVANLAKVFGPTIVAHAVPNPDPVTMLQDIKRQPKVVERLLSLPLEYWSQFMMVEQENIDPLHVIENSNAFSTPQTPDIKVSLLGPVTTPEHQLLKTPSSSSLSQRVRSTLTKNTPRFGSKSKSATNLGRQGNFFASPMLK
Briefly: MgcRacGAP GTPase-activating activity inhibitors, confirmation, biochemical, ADP Hunter fluorescence, primary and confirmatory (AID 624330). Type of assay: functional.

Assay [3] addresses Scavenger receptor class B member 1 (Mus musculus, UniProt Q61009). Briefly: inhibitors of SR-BI mediated HDL lipid uptake, dose response, ldlA[mSR-BI] cells, fluorescence, cherry pick (AID 493194).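 Further: cellular uptake of fluorescent DiI-labeled HDL measured as cell fluorescence.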 Type of assay: functional, cell-based.
A short description of assay [4]: growth suppression of beta-catenin-knockout colon cells, dose response, cell-based, HCT116, human colon tumor (AID 1045).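 Further: HCT116 colon tumor cells with beta catenin knocked out; cells exposed to compound for 60 hours.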 It counts as functional.
Assay [5] in a line: inhibitors of firefly luciferase expression or activity, dose response, H4 neuroglioma cells, luminescence (AID 1990). Type of assay: functional, cell-based.
Assay [6] is described as follows: growth suppression of PTEN-null colon cells, dose response, cell-based, HCT116 PTEN knockout (AID 1047).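 Further: HCT116 colon tumor cells with PTEN knocked out; cells exposed to compound for 60 hours before readout; potency for loss of cell viability measured by luminescence.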 It counts as functional.
For assay [7], the system named is BJ. Briefly: cells. Particulars: Homo sapiens. Type of assay: functional, cell-based.
Assay [8] in a line: inhibitors of SNCA 5'UTR-driven reporter translation, confirmation, H4 neuroglioma cells, luminescence (AID 1988). It counts as functional, cell-based.
In another assay the target is Melanocortin receptor 4 (Homo sapiens, UniProt P32245). Type of assay: functional, cell-based.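 Further: Cell-based assay with luminescence read-out, confirmatory dose-response testing for agonist activity of biased ligands at MC4R; human U2OS cells with tagged receptor and beta-arrestin; potency of agonists that increase receptor coupling to beta-arrestin.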
Melanocortin receptor 4, sequence (P32245 whole entry): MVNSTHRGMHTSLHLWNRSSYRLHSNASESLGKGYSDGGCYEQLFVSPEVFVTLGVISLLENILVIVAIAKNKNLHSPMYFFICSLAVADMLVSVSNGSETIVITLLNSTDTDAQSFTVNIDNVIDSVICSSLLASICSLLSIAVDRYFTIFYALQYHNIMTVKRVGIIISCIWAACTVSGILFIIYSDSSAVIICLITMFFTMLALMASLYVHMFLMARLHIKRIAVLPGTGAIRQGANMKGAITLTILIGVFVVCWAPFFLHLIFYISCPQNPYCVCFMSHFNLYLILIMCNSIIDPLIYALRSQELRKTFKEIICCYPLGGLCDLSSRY
Assay [9] in a line: cytotoxicity toward DRD oncogenic fibroblasts, dose response, cell-based, non-viral oncogenic, luminescence (AID 1934). It counts as functional. The conditions noted are these: Homo sapiens.
The target of another assay is Galanin receptor type 2 (Homo sapiens, UniProt O43603). Briefly: Dose Response cell-based high-throughput screening assay to identify agonists of galanin receptor 2 (GALR2). [Related pubchem assays: 864 ]. Type of assay: functional.
Galanin receptor type 2, sequence (O43603 whole entry): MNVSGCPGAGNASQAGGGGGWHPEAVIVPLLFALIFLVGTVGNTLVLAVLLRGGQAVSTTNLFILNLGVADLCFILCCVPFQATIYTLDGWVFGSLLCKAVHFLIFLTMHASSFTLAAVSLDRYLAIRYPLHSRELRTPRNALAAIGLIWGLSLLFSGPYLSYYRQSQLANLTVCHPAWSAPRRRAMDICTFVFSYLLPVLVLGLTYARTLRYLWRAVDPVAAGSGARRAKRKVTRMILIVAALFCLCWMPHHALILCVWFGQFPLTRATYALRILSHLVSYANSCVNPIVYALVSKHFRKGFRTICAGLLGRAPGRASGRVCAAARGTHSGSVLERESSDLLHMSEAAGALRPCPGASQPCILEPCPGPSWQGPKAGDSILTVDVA
In assay [10] the test system is BJ. Briefly: cytotoxicity toward BJ-TERT fibroblasts, dose response, cell-based, RAS-independent, luminescence (AID 1933). Particulars: Homo sapiens. It counts as functional.
The test system of assay [11] is BJ. Put plainly: cytotoxicity toward BJ-TERT-LT-ST fibroblasts, dose response, cell-based, RAS-independent, luminescence (AID 1935).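 Further: BJ fibroblasts immortalized with TERT plus LT and ST oncogenes.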 It counts as functional. Particulars: Homo sapiens.
The nature of assay [12]: Cytotoxicity screening for potential Inhibitors of Bacterial Capsule Biogenesis. [Related pubchem assays (depositor defined):AID488970]. It counts as functional.
The test system of assay [13] is BJ. Put plainly: cytotoxicity toward Ras-transformed BJeLR fibroblasts, dose response, cell-based, alamar blue fluorescence, cherrypicked samples (AID 2631).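 Further: confirmatory dose-response assay in RAS-dependent BJ fibroblasts engineered with TERT, LT and ST, with cytotoxicity read by fluorescence.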 Particulars: Homo sapiens. It counts as functional.
The nature of assay [14]: Luminescence Cell-Based Dose Response HTS to Identify Inhibitors of 5'UTR Stem-Loop Driven Prion Protein mRNA Translation in H4 Neuroglioblastoma Cells. [Related pubchem assays: 1827 (Project Summary), 1813 (Primary HTS)]. It counts as functional.
The target in assay [15] is Cyclin-dependent kinase 5/CDK5 activator 1 (Homo sapiens, UniProt Q00535). Put plainly: CDK5/p35 kinase inhibitors, dose response, biochemical, cherry-picked samples, set 2 (AID 504545).
Cyclin-dependent kinase 5/CDK5 activator 1, sequence (Q00535 whole entry): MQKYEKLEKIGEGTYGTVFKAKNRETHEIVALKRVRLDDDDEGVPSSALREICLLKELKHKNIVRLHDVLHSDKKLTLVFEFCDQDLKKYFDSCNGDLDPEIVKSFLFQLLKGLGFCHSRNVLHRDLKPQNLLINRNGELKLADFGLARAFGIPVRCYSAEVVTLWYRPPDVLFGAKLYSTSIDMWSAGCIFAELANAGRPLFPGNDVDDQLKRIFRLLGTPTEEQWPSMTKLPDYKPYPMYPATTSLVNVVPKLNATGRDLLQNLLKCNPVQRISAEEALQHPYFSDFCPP
Cyclin-dependent kinase 5/CDK5 activator 1, sequence (Q15078 whole entry, further chain): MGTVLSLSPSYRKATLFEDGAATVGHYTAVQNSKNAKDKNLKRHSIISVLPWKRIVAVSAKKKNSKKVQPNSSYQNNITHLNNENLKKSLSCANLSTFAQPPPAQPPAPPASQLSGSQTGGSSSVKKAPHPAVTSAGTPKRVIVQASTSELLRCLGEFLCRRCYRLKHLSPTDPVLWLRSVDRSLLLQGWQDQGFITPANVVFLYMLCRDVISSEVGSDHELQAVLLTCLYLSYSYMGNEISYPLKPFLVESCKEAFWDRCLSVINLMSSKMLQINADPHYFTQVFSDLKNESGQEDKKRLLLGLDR
Assay [16] is described as follows: control 3'UTR Renilla luciferase suppression, dose response, counter-screen for Shn3 inhibitor project, cell-based, Clone20-Shn3RL, cherry-picked (AID 624133). Type of assay: functional.
Assay [17] is described as follows: Shn3 3'UTR reporter inhibitors, dose response, cell-based, Clone20 osteoblasts, firefly luciferase, cherry-picked (AID 624132).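 Further: firefly luciferase luminescence from reporter carrying the Shn3 3'UTR in osteoblasts.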 It counts as functional.
Assay [18] concerns the target T2, RNA-binding protein pos-1 (Caenorhabditis elegans, UniProt G5EF15).
T2 sequence (G5EF15 whole entry): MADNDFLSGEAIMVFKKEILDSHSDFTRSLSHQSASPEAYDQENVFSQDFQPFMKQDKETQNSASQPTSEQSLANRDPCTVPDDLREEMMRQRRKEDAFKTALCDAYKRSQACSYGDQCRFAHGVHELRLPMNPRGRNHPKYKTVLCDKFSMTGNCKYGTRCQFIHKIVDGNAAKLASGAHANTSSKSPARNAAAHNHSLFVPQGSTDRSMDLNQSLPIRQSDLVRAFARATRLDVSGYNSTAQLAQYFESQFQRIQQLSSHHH
Put plainly: inhibitors of POS-1/mex-3 RNA binding, dose response, biochemical, fluorescence polarization (AID 1964).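 Further: purified POS-1 fused to maltose binding protein made in E. coli; potency of compounds blocking POS-1 binding to fluorescent RNA.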

In assay [19] the target is Dual specificity tyrosine-phosphorylation-regulated kinase 1A (Rattus norvegicus, UniProt Q63470). Type of assay: biochemical, Homo sapiens.
Assay [20] can be described thus: miR-122 activators in hepatoma reporter cells, dose response, cell-based, Huh7 psiCHECK-miR122, Renilla luciferase, cherry-picked (AID 651956).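 Further: huh7 hepatoma cells stably carrying a psiCHECK-2 miR-122 sensor plasmid; renilla luciferase signal reporting endogenous miR-122 activity after 48 h compound exposure.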 Type of assay: functional.
The target in assay [21] is T3, Zinc finger protein mex-5 (Caenorhabditis elegans, UniProt Q9XUB2).
T3 sequence (Q9XUB2 whole entry): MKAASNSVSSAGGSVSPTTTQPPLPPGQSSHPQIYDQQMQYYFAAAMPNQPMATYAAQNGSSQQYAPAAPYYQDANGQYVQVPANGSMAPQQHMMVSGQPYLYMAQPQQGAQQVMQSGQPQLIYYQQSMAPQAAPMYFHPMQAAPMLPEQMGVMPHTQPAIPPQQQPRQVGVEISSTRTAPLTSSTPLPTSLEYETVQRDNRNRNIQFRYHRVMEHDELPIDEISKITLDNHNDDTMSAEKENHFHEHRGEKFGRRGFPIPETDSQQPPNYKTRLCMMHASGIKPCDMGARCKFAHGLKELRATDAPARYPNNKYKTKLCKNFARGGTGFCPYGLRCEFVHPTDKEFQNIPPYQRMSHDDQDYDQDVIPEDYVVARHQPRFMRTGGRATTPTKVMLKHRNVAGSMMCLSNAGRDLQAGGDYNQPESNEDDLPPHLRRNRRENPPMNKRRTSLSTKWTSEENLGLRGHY
Put plainly: MEX-5/TCR-2 RNA interaction inhibitors, dose response, biochemical, C. elegans, fluorescence polarization (AID 1960).

The target in assay [22] is FAD-linked sulfhydryl oxidase ALR (Homo sapiens, UniProt P55789). Put plainly: inhibitors of human ALR sulfhydryl oxidase, dose response, biochemical, H2O2 detection, luminescence, cherry-pick (AID 493248).
FAD-linked sulfhydryl oxidase ALR, sequence (P55789 whole entry): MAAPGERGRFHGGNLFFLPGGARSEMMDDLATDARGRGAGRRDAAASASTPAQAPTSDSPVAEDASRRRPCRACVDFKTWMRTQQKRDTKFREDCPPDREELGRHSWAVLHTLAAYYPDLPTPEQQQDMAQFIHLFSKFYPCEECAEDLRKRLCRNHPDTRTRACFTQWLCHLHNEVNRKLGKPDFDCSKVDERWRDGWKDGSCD
Assay [23] deals with T4, Estrogen receptor beta (Homo sapiens, UniProt Q92731). Put plainly: ERβ–SRC-3 coactivator interaction inhibitors, confirmation, orthogonal assay, biochemical, ELISA, streptavidin-HRP readout (AID 1060).
T4 sequence (Q92731 whole entry): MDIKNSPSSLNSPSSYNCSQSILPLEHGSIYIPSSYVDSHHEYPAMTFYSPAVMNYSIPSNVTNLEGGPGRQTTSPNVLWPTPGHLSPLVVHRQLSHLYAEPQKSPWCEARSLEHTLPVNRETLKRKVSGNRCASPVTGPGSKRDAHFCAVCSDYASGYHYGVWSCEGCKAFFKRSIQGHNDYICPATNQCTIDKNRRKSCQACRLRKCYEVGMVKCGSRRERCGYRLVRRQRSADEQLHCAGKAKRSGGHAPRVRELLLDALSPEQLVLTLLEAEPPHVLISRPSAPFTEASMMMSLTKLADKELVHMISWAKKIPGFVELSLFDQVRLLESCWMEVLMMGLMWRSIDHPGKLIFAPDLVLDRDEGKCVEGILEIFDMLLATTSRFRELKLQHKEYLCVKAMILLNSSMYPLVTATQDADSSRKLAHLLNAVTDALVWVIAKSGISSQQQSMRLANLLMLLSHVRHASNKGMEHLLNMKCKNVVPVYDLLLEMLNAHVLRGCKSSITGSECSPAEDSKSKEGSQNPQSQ
Another assay concerns the target Large T antigen (Simian virus 40, UniProt P03070). It counts as functional, Betapolyomavirus macacae.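 Further: Confirmatory-stage PubChem screen for compounds that inhibit SV40 T antigen.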
A short description of assay [24]: HepG2 cell cytotoxicity, dose response, cytotoxicity control for Shn3 inhibitor project, CellTiter-Glo, cherry-picked (AID 624134). It counts as functional, cell-based.
Assay [25] in a line: HEK293T cytotoxicity, dose response, cytotoxicity control for miR-122 modulator project, cell-based, inhibitor set, cherry-pick, set 2 (AID 720697). It counts as functional.
Assay [26] has as its target T4, Estrogen receptor beta.
Assay [27] addresses Neurotensin receptor type 1 (Homo sapiens, UniProt P30989). It counts as functional.
For a further assay, the system named is INS1. Briefly: beta cell apoptosis inhibitors, cytokine rescue, dose response, luminescence, retest (AID 449756).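 Further: cell death triggered by IL-1 beta plus TNF-alpha plus IFN-gamma mixture; protective hits raise ATP signal compared with cytokine alone wells.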 Particulars: Rattus norvegicus. It counts as functional, cell-based.
Assay [28] addresses G2/mitotic-specific cyclin-B1 (Homo sapiens, UniProt P14635). Put plainly: G2/M cell cycle arrest in HeLa, late-stage follow-up, mechanism study for Wee1 degradation inhibitor project, FACS, panel member Cyclin B Degradation (AID 2088).
The target in a further assay is Wee1-like protein kinase (Homo sapiens, UniProt P30291). Briefly: G2/M cell cycle arrest in HeLa, late-stage follow-up, mechanism study for Wee1 degradation inhibitor project, FACS, panel member Wee1 Degradation (AID 2088).
Wee1-like protein kinase, sequence (P30291 whole entry): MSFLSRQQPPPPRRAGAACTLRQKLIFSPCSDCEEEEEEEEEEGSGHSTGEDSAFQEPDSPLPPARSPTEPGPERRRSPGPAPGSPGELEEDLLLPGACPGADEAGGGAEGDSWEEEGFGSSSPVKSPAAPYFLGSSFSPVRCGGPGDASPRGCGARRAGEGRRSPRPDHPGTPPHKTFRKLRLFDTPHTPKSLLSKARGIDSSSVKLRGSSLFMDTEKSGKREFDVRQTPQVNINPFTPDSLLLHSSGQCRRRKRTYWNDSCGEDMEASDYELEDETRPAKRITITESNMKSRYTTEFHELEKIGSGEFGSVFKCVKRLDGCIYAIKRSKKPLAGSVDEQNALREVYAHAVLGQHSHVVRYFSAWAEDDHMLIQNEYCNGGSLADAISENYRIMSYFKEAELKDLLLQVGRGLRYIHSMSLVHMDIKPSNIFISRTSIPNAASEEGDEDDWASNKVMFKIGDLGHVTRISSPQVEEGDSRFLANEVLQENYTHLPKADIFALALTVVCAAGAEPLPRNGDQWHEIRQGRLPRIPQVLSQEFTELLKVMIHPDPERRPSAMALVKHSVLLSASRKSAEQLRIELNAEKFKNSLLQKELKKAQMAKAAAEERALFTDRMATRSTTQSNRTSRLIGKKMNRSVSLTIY

The source made the active and inactive calls.

Scavenger receptor class B member 1, sequence (Q61009 whole entry): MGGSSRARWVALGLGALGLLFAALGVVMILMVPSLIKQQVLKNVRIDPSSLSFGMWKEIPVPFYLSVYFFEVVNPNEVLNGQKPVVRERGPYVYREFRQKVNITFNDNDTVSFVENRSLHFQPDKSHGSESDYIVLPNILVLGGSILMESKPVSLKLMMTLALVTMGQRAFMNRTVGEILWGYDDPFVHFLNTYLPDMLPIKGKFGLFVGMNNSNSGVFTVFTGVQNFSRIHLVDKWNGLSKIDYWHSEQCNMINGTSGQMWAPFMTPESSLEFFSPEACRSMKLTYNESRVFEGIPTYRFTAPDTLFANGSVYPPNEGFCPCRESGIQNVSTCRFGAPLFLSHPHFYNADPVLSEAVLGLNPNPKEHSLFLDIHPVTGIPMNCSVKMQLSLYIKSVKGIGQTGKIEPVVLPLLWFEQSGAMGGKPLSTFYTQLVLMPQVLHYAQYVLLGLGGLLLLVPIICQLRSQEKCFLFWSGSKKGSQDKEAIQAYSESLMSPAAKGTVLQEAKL
Large T antigen, sequence (P03070 whole entry): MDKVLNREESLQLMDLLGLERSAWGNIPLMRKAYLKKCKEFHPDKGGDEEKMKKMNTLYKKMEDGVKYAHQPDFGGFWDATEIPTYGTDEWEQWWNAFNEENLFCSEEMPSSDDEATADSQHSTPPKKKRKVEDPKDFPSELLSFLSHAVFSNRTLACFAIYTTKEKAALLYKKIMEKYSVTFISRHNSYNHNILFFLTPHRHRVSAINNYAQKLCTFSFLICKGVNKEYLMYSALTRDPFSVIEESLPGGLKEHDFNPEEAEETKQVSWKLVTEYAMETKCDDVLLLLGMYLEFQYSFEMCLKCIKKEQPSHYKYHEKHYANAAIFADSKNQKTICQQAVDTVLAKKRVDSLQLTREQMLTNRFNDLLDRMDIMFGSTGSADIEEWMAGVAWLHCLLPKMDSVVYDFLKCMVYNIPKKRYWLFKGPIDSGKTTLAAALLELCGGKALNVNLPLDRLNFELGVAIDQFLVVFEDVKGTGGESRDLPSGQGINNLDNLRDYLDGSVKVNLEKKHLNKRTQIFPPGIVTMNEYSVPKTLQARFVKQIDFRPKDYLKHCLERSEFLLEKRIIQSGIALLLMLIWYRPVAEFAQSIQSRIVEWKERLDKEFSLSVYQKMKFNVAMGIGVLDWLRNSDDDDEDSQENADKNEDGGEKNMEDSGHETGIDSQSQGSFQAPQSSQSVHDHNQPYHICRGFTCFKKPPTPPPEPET
G2/mitotic-specific cyclin-B1, sequence (P14635 whole entry): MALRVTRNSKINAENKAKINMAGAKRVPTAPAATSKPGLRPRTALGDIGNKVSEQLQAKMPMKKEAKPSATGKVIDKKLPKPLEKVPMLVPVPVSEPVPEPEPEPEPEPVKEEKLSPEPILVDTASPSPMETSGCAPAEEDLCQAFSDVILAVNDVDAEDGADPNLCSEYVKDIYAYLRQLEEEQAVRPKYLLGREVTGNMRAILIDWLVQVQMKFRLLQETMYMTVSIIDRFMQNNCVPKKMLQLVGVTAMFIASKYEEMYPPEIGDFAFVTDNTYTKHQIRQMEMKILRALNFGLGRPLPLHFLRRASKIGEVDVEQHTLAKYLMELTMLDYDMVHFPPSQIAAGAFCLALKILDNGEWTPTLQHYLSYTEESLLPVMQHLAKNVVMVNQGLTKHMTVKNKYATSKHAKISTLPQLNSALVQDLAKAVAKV
G-protein coupled receptor 35, sequence (Q9HC97 whole entry): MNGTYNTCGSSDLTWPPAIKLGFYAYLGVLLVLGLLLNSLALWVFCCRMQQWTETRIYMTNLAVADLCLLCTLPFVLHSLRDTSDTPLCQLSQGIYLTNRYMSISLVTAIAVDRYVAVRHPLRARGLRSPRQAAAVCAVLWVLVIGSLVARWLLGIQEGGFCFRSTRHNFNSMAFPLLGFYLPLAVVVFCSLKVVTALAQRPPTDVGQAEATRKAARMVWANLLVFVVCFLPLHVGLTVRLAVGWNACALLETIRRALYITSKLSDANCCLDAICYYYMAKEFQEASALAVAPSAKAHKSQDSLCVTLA

With `Nc1[nH]c2cc([N+](=O)[O-])ccc2c1-c1ccccn1`, the results for the IC50 in assay [1] and in [2] were 0.787 µM (active) and 82.9 µM (active), respectively.

With `Cc1ccccc1NC(=O)NCC1CCN(c2ccc(S(=O)(=O)N3CCOCC3)cc2)CC1`, in assay [3], the AC50 was 1.04 µM (active).

As to `CCCOc1ccc(C(=O)C(CCC(CNCC)C(=O)c2ccc(OCCC)cc2)CNCC)cc1` (configuration not stated), the concentration for a half-maximal effect (EC50) in assay [4] is 1.88 µM (active); in [5], > 120 µM (not active); in assay [6], 1.76 µM (active); with BJ [7], 4.61 µM (active); in assay [8] it was 6.08 µM (active); at Melanocortin receptor 4, > 89.2 µM (inactive). Moreover, the EC50 in [9] was 3.31 µM (active); on Galanin receptor type 2, > 55.7 µM (not active); in the assay with BJ [10], 2.57 µM (inconclusive); in the assay on BJ [11], 2.72 µM (inconclusive); with BJ [13] it was 0.513 µM (active); in assay [14], 8.92 µM (active). Further, the CC50 in assay [12] was 3.18 µM (active).

Turning to `Oc1ccc(-c2nc(-c3ccc(O)c(O)c3)cs2)cc1`, the AC50 in assay [15] was 23.5 µM (active); in assay [16], 5.09 µM (active); in [17] it was 5.07 µM (active); in [19], 3.19 µM (active); in assay [20], 29 µM (active); in assay [22], 1.22 µM (active). Further, the AC50 in [24] is > 70 µM (inactive); in [25], 1.31 µM (active). For the same molecule, the EC50 in assay [18] is 33.5 µM (active); in the assay with BJ [7], 41.4 µM (active); in [21], 20.8 µM (inconclusive); in assay [9], 2.67 µM (inconclusive); in the assay on BJ [10] it was 2.89 µM (inconclusive); with BJ [11] it was > 150 µM (not active). Also, the values for the IC50 against Estrogen receptor beta [23], at Large T antigen and on Estrogen receptor beta [26] were 90.7 µM (not active), 36.1 µM (active) and 4.96 µM (active), respectively.

For `c1ccc(C(c2ccccc2)N2CCN(c3nc4ccccc4n4cnnc34)CC2)cc1`, the EC50 in [27] is 26.4 µM (inactive). Moreover, the AC50 in the assay with INS1 is 4.56 µM (active).

Take `Cc1cc(O)nc(-n2nc(C)cc2NC(=O)c2cccc(Br)c2)n1`: the EC50 (in assay [28]; on Wee1-like protein kinase) was > 49.7 µM (inactive) each time.
